Structures are written as SMILES.

A short description of data set [1]: Surface tension at air-liquid interface at CMC, Wilhelmy plate method. Format: physicochemical. The following applies: 25° C. and atmospheric pressure. The method, then:
(§1) To determine whether the sulfoxide-based compounds synthesized in Examples 1-9 had surfactant properties, the critical micelle concentration (CMC), surface tension, and solubility were determined. The Wilhelmy plate method was used to determine the equilibrium surface or interfacial tension at an air-liquid interface. A Cahn DCA 322 high-sensitivity balance was used to perform the measurement. Glass slides manufactured by Corning with a width of 22 mm and thickness of 0.1 mm were used as probes; the motor speed was set to be 160 μm/sec. […] The measured force was converted to surface tension using the Wilhelmy equation. The CMC was calculated according to standard procedures.
(§2) The following compounds were tested: (1) hexyl 2-hydroxy-4-[…] (R6SO); (2) octyl 2-hydroxy-4-(methylsulfinyl)butanoate (R8SO); (3) a mixture of 70 wt % R8SO and 30 wt % decyl 2-hydroxy-4-(methylsulfinyl)butanoate (R10SO); (4) a mixture of 70 wt % R8SO and 30 wt % dodecyl 2-hydroxy-4-(methylsulfinyl)butanoate (R12SO); (5) 2-hydroxy-4-(methylsulfinyl)-N-octylbutanamide (R8NHSO); (6) a mixture of 60 wt % R8NHSO and 40 wt % 2-hydroxy-4-(methylsulfinyl)-N-decylbutanamide (R10NHSO); (7) a mixture of 75 wt % R8NHSO and 25 wt % 2-hydroxy-4-(methylsulfinyl)-N-dodecylbutanamide (R12NHSO); as well as the commercially available nonionic surfactants (8) Igepal® CO-630, a branched nonylphenol ethoxylate, and two alkyl ethylene oxides, (9) hexaethylene glycol monododecyl ether (C12E6) and (10) hexaethylene glycol monodecyl ether (C10E6).

Data set [2] can be described thus: Critical micelle concentration (CMC), Wilhelmy plate method. The following applies: in water at 25° C. and atmospheric pressure. Format: physicochemical. The method, then:
as §1, §2

The next data set can be described thus: Solubility in water. Format: physicochemical. The following applies: in water at 25° C. and atmospheric pressure. As to the method:
as §1, §2

The next data set relates to Daphnia. As to the kind of experiment: Daphnia acute immobilization test (OECD 202). Particulars: at 48 hr. Format: in vivo. As to the method:
(§3) The potential hazards of the sulfoxide-based compounds were examined by evaluating the toxicity of R8SO in three standard bioassays (i.e., fresh water algae growth inhibition test, Daphnia acute immobilization test, and fresh water fish acute toxicity test).
The Daphnia acute immobilization test was performed according to the OECD 202 guidelines. Briefly, young daphnids, ages less than 24 hours at the start of the test, were exposed to the test substances at a range of concentrations for a period of 48 hours. Generally, at least 20 animals, preferably divided into four groups of five animals each, were tested for each test concentration and for the controls (i.e., no test substance). The Daphnia were not fed during the test. At least 2 mL of test solution were provided for each animal. Temperatures were held between 18 and 22° C., and for each single test the temperature was within ±1° C. Immobilization was recorded at 24 hours and 48 hours, and compared to control values. Those animals that could not swim within 15 seconds after gentle agitation of the test container were considered to be immobile.

The subject of a further data set is fresh water algae. Briefly: Fresh water algae growth inhibition test (OECD 201). Format: cell-based. The following applies: at 72 hr. The method, then: as §3
The fresh water algae growth inhibition test was conducted according to OECD 201 guidelines. Briefly, exponentially growing fresh water algae were exposed to several concentrations of the test substances in batch cultures over a period of 72 hours. The cultures were allowed unrestricted exponential growth under nutrient sufficient conditions and continuous fluorescent illumination. Three replicates at each test concentration were used. Growth was monitored over time and compared to the average growth of control cultures (with no test substances). Growth and growth inhibition are quantified from measurements of the algal biomass as a function of time.

Data set [3] concerns fresh water fish (i.e., fathead minnows). Briefly: Fresh water fish acute toxicity test (OECD 203). Format: in vivo. The following applies: at 96 hr. The method, then:
as §3
The fresh water fish acute toxicity test was conduced according to OECD 203 guidelines. For this test, fresh water fish (i.e., fathead minnows) were exposed to a series of concentrations of the test substances for a period of 96 hours. At least seven fishes were used at each test concentration and in the controls. Mortalities were recorded at 24, 48, 72, and 96 hours. Fish were considered dead if there was no visible movement (e.g. gill movements) and if touching of the caudal peduncle produced no reaction. The mortality counts were used to determine LC50, the concentration that killed 50% of the fish.

Consider `CCCCCCCCCCOCCOCCOCCOCCOCCOCCO` [Example C10E6, hexaethylene glycol monodecyl ether, reference compound], for which, in data set [1], the “Surface Tension at CMC” value is 42 mN/m. This compound also showed a CMC in data set [2] of 0.90 mM.

Take `CCCCCCCCCCCCOCCOCCOCCOCCOCCOCCO` [Example C12E6, hexaethylene glycol monododecyl ether, reference compound]: the “Surface Tension at CMC” value in data set [1] is 41 mN/m. Besides, the CMC in data set [2] is 0.087 mM.

As for `CCCCCCOC(=O)C(O)CC[S+](C)[O-]` (stereo not shown) [Example R6SO, hexyl 2-hydroxy-4-(methylsulfinyl)butanoate], the “Surface Tension at CMC” value in data set [1] amounted to 33 mN/m. Further, the Solubility in the data set “Solubility in water” is listed as >50% (wt/wt total). In data set [2], this compound gave a CMC of 120.9 mM.

Regarding `CCCCCCCCNC(=O)C(O)CC[S+](C)[O-]` (stereo not shown) [Example R8NHSO, 2-hydroxy-4-(methylsulfinyl)-N-octylbutanamide], the “Surface Tension at CMC” value in data set [1] is on record as 29 mN/m. Further, the Solubility in “Solubility in water” is >50% (wt/wt total). In data set [2], this compound returned a CMC of 10.3 mM.

Consider `CCCCCCCCOC(=O)C(O)CC[S+](C)[O-]` (stereo not shown) [Example R8SO, octyl 2-hydroxy-4-(methylsulfinyl)butanoate], for which the “EC50 (concentration at which 50% of the animals were immobilized)” value in the data set on Daphnia is 79 ppm. The “Surface Tension at CMC” value in data set [1] is on record as 29 mN/m. Besides, the Solubility in the data set “Solubility in water” is >50% (wt/wt total). The “EC50 (50 percent reduction in growth relative to the control)” value in the data set with fresh water algae stood at 175 ppm. Besides, in data set [2], the CMC amounted to 11.7 mM. Also, the “LC50 (concentration that killed 50% of the fish)” value in data set [3] is 148 ppm.

The record behind these values is patent US9169203B2, “Sulfoxide-based surfactants” (Novus International Inc., priority 2012, dated 2015).
